The values below come from patent US20240124412A1, “IKAROS ZINC FINGER FAMILY DEGRADERS AND USES THEREOF” (Gilead Sciences, Inc., priority 2021, published 2024).

One assay addresses T1, IKZF2 (Homo sapiens, UniProt Q96SW2+Q9UKS7).
T1 construct: expressed in transfected cells
The assay can be described thus: HiBiT protein tagging assay, in vitro IKZF2 degradation (HEK293). The note with it: HEK293, 18-24 hr incubation, normalized to DMSO control; for Dmax: HEK293, HiBiT assay, read-out: IKZF2 Dmax (maximum degradation at the highest concentration tested); for DC50: HiBiT assay, read-out: IKZF2 EC50. It counts as cell-based. Put shortly: (§1)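 Flp-In T-REx HEK293 pools stably expressing C-terminal HiBiT-tagged IKZF1 or IKZF2 were induced overnight with 1 μg/ml doxycycline. Cells were then treated with serially diluted compound for 18-24 hr at 37 °C and read by Nano-Glo lytic luminescence. Data were normalized to 0.5% DMSO as POC; EC50 and Dmax (maximum degradation at highest concentration tested) reported.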
A general note: With HiBiT, luminescence reflects the tagged protein that the partner subunit can reach.

The target of the next assay is T2, IKZF1 (Homo sapiens, UniProt Q13422+Q96SW2).
T2 construct: expressed in transfected cells
The assay can be described thus: HiBiT protein tagging assay, in vitro IKZF1 degradation (HEK293). It counts as cell-based. The note with it: HEK293, 18-24 hr incubation, normalized to DMSO control; for Dmax: read-out: IKZF1 Dmax (maximum degradation at the highest concentration tested); for DC50: read-out: IKZF1 EC50. The essentials: as §1

SMILES strings stand for the structures.

T2 sequence (Q13422 whole entry): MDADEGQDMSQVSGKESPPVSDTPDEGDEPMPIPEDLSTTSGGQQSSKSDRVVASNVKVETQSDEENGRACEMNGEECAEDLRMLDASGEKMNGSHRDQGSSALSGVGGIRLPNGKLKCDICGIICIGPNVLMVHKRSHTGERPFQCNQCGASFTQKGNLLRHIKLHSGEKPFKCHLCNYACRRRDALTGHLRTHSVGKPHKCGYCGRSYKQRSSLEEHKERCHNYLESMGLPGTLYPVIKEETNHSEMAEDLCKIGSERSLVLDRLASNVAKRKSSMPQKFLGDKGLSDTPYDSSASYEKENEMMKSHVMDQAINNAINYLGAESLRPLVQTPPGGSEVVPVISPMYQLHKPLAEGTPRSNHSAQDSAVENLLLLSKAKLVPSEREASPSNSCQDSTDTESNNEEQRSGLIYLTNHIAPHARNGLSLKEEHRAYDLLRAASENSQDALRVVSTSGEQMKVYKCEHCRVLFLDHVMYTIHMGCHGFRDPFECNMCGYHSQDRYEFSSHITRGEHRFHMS
T2 sequence (Q96SW2 whole entry): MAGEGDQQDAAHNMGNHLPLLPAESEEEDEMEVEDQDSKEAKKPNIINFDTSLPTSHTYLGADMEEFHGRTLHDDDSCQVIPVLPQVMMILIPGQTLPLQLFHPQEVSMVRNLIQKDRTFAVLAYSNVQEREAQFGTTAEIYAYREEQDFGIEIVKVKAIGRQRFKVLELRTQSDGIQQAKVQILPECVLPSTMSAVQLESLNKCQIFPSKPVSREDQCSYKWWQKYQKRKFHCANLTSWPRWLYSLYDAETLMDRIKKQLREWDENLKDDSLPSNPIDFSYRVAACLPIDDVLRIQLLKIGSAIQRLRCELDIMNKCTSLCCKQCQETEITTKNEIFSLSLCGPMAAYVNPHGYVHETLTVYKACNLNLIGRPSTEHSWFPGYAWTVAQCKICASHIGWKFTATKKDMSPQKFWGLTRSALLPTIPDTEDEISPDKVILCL
T2 sequence (Q16531 whole entry partner): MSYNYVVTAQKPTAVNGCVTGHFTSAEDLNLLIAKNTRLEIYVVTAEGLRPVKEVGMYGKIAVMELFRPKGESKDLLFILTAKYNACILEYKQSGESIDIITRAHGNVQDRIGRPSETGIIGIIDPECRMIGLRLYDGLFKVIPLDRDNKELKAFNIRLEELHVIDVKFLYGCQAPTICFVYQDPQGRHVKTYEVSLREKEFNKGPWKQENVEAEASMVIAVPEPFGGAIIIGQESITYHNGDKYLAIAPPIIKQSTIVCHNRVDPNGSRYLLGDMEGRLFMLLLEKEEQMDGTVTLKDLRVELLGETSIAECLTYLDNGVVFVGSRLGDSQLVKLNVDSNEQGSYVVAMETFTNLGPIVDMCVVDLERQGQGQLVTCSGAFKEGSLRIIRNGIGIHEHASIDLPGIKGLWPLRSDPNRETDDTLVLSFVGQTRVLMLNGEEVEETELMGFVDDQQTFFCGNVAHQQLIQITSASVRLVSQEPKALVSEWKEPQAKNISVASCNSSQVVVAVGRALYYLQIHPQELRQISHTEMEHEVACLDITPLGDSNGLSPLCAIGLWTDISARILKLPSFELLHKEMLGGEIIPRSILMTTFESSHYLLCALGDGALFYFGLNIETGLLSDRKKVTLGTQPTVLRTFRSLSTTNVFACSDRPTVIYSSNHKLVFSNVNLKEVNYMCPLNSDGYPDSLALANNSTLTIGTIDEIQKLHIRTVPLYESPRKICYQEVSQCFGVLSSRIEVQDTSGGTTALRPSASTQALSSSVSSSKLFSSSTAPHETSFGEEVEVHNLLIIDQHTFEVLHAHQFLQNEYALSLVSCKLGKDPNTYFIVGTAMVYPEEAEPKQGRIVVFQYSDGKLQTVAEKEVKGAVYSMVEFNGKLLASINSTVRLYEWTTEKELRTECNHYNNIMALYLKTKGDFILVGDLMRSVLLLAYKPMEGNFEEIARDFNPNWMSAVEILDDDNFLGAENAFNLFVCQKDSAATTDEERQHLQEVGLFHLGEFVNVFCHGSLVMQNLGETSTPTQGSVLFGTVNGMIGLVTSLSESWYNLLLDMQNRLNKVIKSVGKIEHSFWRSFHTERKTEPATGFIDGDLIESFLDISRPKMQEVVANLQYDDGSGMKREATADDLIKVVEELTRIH
T1 sequence (Q9UKS7 1-500 isoform Q9UKS7-2): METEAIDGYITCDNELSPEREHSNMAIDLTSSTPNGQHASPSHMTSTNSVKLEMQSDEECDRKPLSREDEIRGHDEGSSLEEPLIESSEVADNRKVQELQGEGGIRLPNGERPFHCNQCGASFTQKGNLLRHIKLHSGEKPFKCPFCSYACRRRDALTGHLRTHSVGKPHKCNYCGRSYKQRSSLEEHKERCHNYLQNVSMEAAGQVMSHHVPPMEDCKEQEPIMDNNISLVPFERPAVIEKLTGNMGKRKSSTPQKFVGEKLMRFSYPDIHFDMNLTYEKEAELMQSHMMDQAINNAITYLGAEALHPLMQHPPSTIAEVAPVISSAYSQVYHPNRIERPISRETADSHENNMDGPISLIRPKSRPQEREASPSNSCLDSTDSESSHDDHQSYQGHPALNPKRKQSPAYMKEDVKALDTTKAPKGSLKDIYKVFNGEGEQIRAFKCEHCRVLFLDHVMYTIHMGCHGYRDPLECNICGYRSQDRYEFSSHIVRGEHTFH
T1 sequence (Q96SW2 whole entry): as the sequence (Q96SW2 whole entry) above
T1 sequence (Q16531 whole entry partner): as the sequence (Q16531 whole entry partner) above

`O=C1CCC(N2Cc3cc(CN[C@H]4CCC[C@@H](OCc5ccccc5)C4)ccc3C2=O)C(=O)N1` (some centres unmarked) [Example 111]: at IKZF2, the Dmax came out at 56% and the DC50 is 206 nM. On IKZF1, the Dmax is 61% and the DC50 is 85 nM.

For `O=C1CCC(N2Cc3cc(CNC4CC5CCC4C5)ccc3C2=O)C(=O)N1` (stereo not drawn) [Example 42, 3-(5-((exo-bicyclo[2.2.1]heptan-2-ylamino)methyl)-1-oxoisoindolin-2-yl)piperidine-2,6-dione], at IKZF2, the Dmax came to 65% and the DC50 came to 193 nM. Moreover, on IKZF1, the Dmax came to 30% and the DC50 is 85 nM.

For `O=C1CCC(N2Cc3cc(CNC4CCC(Oc5ccccc5)CC4)ccc3C2=O)C(=O)N1` (centres unmarked) [Example 104], at IKZF2, the Dmax was found to be 72% and the DC50 turned out to be 42 nM. On IKZF1, the Dmax amounted to 82% and the DC50 was 23 nM.

For the compound `O=C1CCC(N2Cc3cc(CNCc4ccccc4)ccc3C2=O)C(=O)N1` (centres unmarked) [Example 33, 3-(5-((benzylamino)methyl)-1-oxoisoindolin-2-yl)piperidine-2,6-dione], the Dmax at IKZF2 was 27%; at IKZF1, 75%. Besides, the DC50 at IKZF2 is 264 nM; at IKZF1 it was 35 nM.

For `CC1(NCc2ccc3c(c2)CN(C2CCC(=O)NC2=O)C3=O)CCCCC1` (centres unmarked) [Example 113], at IKZF2, the Dmax was 95% and the DC50 stood at 49 nM. In addition, on IKZF1, the Dmax is 27% and the DC50 amounted to 96 nM.

With `O=C1CCC(N2Cc3cc(CNCCc4ccccc4Cl)ccc3C2=O)C(=O)N1` (centres unmarked) [Example 44, 3-(5-(((2-chlorophenethyl)amino)methyl)-1-oxoisoindolin-2-yl)piperidine-2,6-dione], on IKZF2, the Dmax was found to be 32% and the DC50 is 240 nM. Also, at IKZF1, the Dmax worked out at 72% and the DC50 was determined as 38 nM.

On to `O=C1CCC(N2Cc3cc(CNC4CCN(Cc5ccccc5)C(=O)C4)ccc3C2=O)C(=O)N1` (centres unmarked) [Example 61], for which, at IKZF2, the Dmax was 29% and the DC50 was 1400 nM. In addition, on IKZF1, the Dmax worked out at 27%.

For `CCCC[C@H]1CC[C@H](NCc2ccc3c(c2)CN(C2CCC(=O)NC2=O)C3=O)CC1` (some centres unmarked) [Example 79], on IKZF2, the Dmax worked out at 69% and the DC50 was 218 nM. In addition, on IKZF1, the Dmax is 30% and the DC50 was 169 nM.

`O=C1CCC(N2Cc3cc(CNC4CCC5(CCCC5)CC4)ccc3C2=O)C(=O)N1` (centres unmarked) [Example 84]: at IKZF2, the Dmax turned out to be 79% and the DC50 worked out at 46 nM. Further, at IKZF1, the Dmax was 55% and the DC50 came to 64 nM.

With `CO[C@H]1CC[C@H](NCc2ccc3c(c2)CN(C2CCC(=O)NC2=O)C3=O)CC1` (some centres unmarked) [Example 76], the results for the Dmax at IKZF2 and at IKZF1 were 90% and 51%, respectively. The DC50 at IKZF2 was determined as 144 nM; on IKZF1 it was 184 nM.

With `C[C@@H]1CC[C@@H](NCc2ccc3c(c2)CN(C2CCC(=O)NC2=O)C3=O)CN1Cc1ccccc1` (stereo partly drawn) [Example 138, 3-(5-((((3R,6R)-1-benzyl-6-methylpiperidin-3-yl)amino)methyl)-1-oxoisoindolin-2-yl)piperidine-2,6-dione], on IKZF2, the Dmax was determined as 83% and the DC50 was 189 nM. Besides, on IKZF1, the Dmax worked out at 92% and the DC50 is 27 nM.

With `O=C1CCC(N2Cc3cc(CNC45CC(C4)C5)ccc3C2=O)C(=O)N1` (centres unmarked) [Example 15, 3-(5-((bicyclo[1.1.1]pentan-1-ylamino)methyl)-1-oxoisoindolin-2-yl)piperidine-2,6-dione], the Dmax on IKZF2 was determined as 29%. For the same compound, the DC50 at IKZF2 was 1800 nM; on IKZF1, above 10000 nM.

Turning to `CC1(C)CCC(NCc2ccc3c(c2)CN(C2CCC(=O)NC2=O)C3=O)CC1` (centres unmarked) [Example 140], at IKZF2, the Dmax is 86% and the DC50 was 61 nM. Moreover, at IKZF1, the Dmax was 60% and the DC50 was determined as 55 nM.
